Like-named read-outs stand apart in the source and are kept apart here. Marks after values point to notes of the source that are not given here.
Columns and labels:
cynomolgus monkey PBMCs = assay: Cytokine response by primary cynomolgus monkey PBMCs stimulated with LPS; type: cell-based, cynomolgus monkey (M. fascicularis); conditions: Macaca fascicularis, PBMC, 100 ng/ml LPS 20 h
Description: Freshly isolated cynomolgus monkey (M. fascicularis) peripheral blood mononuclear cells (PBMCs) were purchased from SNBL (Everett, Wash.). Cells were seeded at 1.8e6 cells/ml in RPMI 1640 (Life Technologies, Grand Island, N.Y.) containing 10% (v/v) charcoal-dextran treated, heat inactivated FBS (Omega Scientific, Tarzana, Calif.), 0.05 mM 2-Mercaptoethanol (Sigma-Aldrich, St. Louis, Mo.), and 1×Pen/Strep Amphotericin B (Lonza, Allendale, N.J.). Cells were pre-treated with 0.1% DMSO or with a test compound for 1 h at 37° C. in a humidified atmosphere at 5% CO2. Compounds were tested at 10 μM down by ⅕ in a 4-point serial dilution series. Cells were then stimulated with 100 ng/ml LPS from E. coli 0111:B4 (EMD Millipore, Billerica, Mass.) for 20 h at 37° C. in a humidified atmosphere at 5% CO2. Supernatant was collected and analyzed using the Milliplex Map Non-human Primate Cytokine Magnetic Bead Panel Kit (EMD Millipore) as per manufacturer's protocols. Magnetic beads were read on the Bio-Plex MAGPIX multiplex reader instrument using the accompanying xPONENT 4.2 acquisition software (Bio-Rad Laboratories, Hercules, Calif.). Data were analyzed via the Bio-Plex Manager software v6.1 (Bio-Rad Laboratories).

[1] = test system: Imiquimod-induced psoriasis mouse model; assay: Imiquimod (IMQ)-induced acute model of psoriasis in mouse: skin thickness, erythema, scaling; type: in vivo, mouse (Balb/c)
Description: Material and methods for the IMQ study were adapted from van der Fits et al. J Immunol., 2009, 182: 5836-5845. Eight week old male Balb/c mice (Harlan) received a daily topical dose of 62.5 mg 5% IMQ cream (Aldara™, Medicis) equivalent to 3.125 mg IMQ, on the shaved back (approximately 2×3.5 cm patch) and dorsal surface of the right ear for 6 consecutive days. Sham control mice were treated similarly with control cream (Hydrous Emulsified Base, HEB, Cream, Fagron). Treatments were administered by group as indicated in Table 1 below prior to daily application of IMQ (QD and morning dose of BID regimens), n=10 for all groups. […] Body weights and scoring of induced clinical disease were performed after dosing (Days 1-7) but prior to IMQ application (Days 1-6) on Days 1 (baseline), 3, 4, 6, 8. Mice were sacrificed on Day 8 and treated back skin tissue collected and divided for fixation for histopathology (a 12 mm punch in mid-back) the remainder flash frozen; right (IMQ) and left (control) ears, spleen (after wet weight) and lung were also individually collected and flash frozen, and stored at −70° C. for subsequent biochemical analyses. Statistics were performed using one-way ANOVA with Dunnett's post-hoc test comparing treated groups to the vehicle group, using InStat software (GraphPad, La Jolla, Calif.).
The severity of clinical disease was assessed by
1) skin thickness dial gauge micrometer measurements (duplicate) of the ears and the dorsal skin at the midline of the back (equal to double true measure of dorsal skin thickness)
2) erythema and scaling, independently scored on a scale from 0-4: 0=none, 1=slight, 2=moderate, 3=marked, 4=very marked with intermediate increments of 0.5 allowed.
Clinical disease assessments included erythema, scaling, skin thickness and cumulative disease severity scores and the change in skin thickness of the ears and dorsal back skin over time compared to baseline measurements (Tables 19 and 20). Body weights of the mice were measured at baseline and at end of study, and there were no significant changes in weight in any treatment group during the study (data not shown).

BRD7 = biological target: T1, BRD7 (Homo sapiens, UniProt Q9NPI1); assay: Bromodomain binding assay: BRD7
T1 construct: T7 phage strains displaying bromodomains were grown in parallel; made in house; host or cells: E. coli host derived from BL21, infected with T7 phage
Description: T7 phage strains displaying bromodomains were grown in parallel in 24-well blocks in an E. coli host derived from the BL21 strain. E. coli were grown to log-phase and infected with T7 phage from a frozen stock (multiplicity of infection=0.4) and incubated with shaking at 32° C. until lysis (90-150 minutes). The lysates were centrifuged (5,000×g) and filtered (0.2 μm) to remove cell debris. […] The liganded beads were blocked with excess biotin and washed with blocking buffer (SeaBlock (Pierce), 1% BSA, 0.05 Tween 20, 1 mM DTT) to remove unbound ligand and to reduce non-specific phage binding. […] Test compounds (T62 and 46) were prepared as 1000× stocks in 100% DMSO and subsequently diluted 1:10 in monoethylene glycol (MEG) to create stocks at 100× the screening concentration (resulting stock solution is 10% DMSO/90% MEG). The compounds were then diluted directly into the assays such that the final concentration of DMSO and MEG were 0.1% and 0.9%, respectively. All reactions were performed in polystyrene 96-well plates in a final volume of 0.135 ml. […] The bromodomain concentration in the eluates was measured by qPCR. Compounds were assayed for binding activity against a panel of 40 bromodomain-containing proteins.

T1 sequence (Q9NPI1 131-235 limits assumed, species assumed): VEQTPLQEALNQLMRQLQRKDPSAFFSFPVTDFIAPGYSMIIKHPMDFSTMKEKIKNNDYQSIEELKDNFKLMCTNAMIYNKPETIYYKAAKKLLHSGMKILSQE

Question: What does the source list for `CCOc1cc(C(=O)N2CCC(N3CCCC3)CC2)ccc1Nc1cc2c(cn1)N(C)C(=O)c1ccccc1N2C` [Compound 46, 3-(2-Ethoxy-4-(4-(pyrrolidin-1-yl)piperidine-1-carbonyl)phenylamino)-5,11-dimethyl-5H-benzo[e]pyrido[3,4-b][1,4]diazepin-10(11H)-one]?
Answer: EC50 (cynomolgus monkey PBMCs; read-out: EC50 (μM) under LPS stimulation, G-CSF): 0.26 µM; EC50 (cynomolgus monkey PBMCs; read-out: EC50 (μM) under LPS stimulation, GM-CSF): 0.18 µM; EC50 (cynomolgus monkey PBMCs; read-out: EC50 (μM) under LPS stimulation, IFN-γ): 0.28 µM; EC50 (cynomolgus monkey PBMCs; read-out: EC50 (μM) under LPS stimulation, IL-1ra): 0.32 µM; EC50 (cynomolgus monkey PBMCs; read-out: EC50 (μM) under LPS stimulation, IL-1β): 0.2 µM; EC50 (cynomolgus monkey PBMCs; read-out: EC50 (μM) under LPS stimulation, IL-4): 0.48 µM; EC50 (cynomolgus monkey PBMCs; read-out: EC50 (μM) under LPS stimulation, IL-6): 0.6 µM; EC50 (cynomolgus monkey PBMCs; read-out: EC50 (μM) under LPS stimulation, IL-8): 0.35 µM; EC50 (cynomolgus monkey PBMCs; read-out: EC50 (μM) under LPS stimulation, IL-10): 0.31 µM; EC50 (cynomolgus monkey PBMCs; read-out: EC50 (μM) under LPS stimulation, IL-12/IL-23 (p40)): 0.36 µM; EC50 (cynomolgus monkey PBMCs; read-out: EC50 (μM) under LPS stimulation, MCP-1): 0.13 µM; EC50 (cynomolgus monkey PBMCs; read-out: EC50 (μM) under LPS stimulation, MIP-1α): 0.78 µM; EC50 (cynomolgus monkey PBMCs; read-out: EC50 (μM) under LPS stimulation, MIP-1β): 2.2 µM; EC50 (cynomolgus monkey PBMCs; read-out: EC50 (μM) under LPS stimulation, TNF-α): 0.24 µM; EC50 (cynomolgus monkey PBMCs; read-out: EC50 (μM) under LPS stimulation, VEGF): 0.45 µM; EC50 (cynomolgus monkey PBMCs; read-out: EC50 (μM) under LPS stimulation, sCD40L): 0.41 µM; Clinical Score Erythema (0-4), AVG Score ([1]; Day 1 (baseline), 60 mpk BID): 0; Clinical Score Scaling (0-4), AVG Score ([1]; Day 1 (baseline), 60 mpk BID): 0; Clinical Score Erythema (0-4), AVG Score ([1]; Day 1 (baseline), 60 mpk QD): 0; Clinical Score Scaling (0-4), AVG Score ([1]; Day 1 (baseline), 60 mpk QD): 0; % Mean DORSAL BACK THICKNESS versus day 1, AVG ([1]; Day 3, 25 mpk BID): 29.55%; % Mean LEFT EAR THICKNESS [Control] versus day 1, AVG ([1]; Day 3, 25 mpk BID): −7.42%; % Mean RIGHT EAR THICKNESS [IMQ] versus day 1, AVG ([1]; Day 3, 25 mpk BID): 6.71%; % Mean DORSAL BACK THICKNESS versus day 1, AVG ([1]; Day 3, 60 mpk BID): 34.79%; % Mean LEFT EAR THICKNESS [Control] versus day 1, AVG ([1]; Day 3, 60 mpk BID): −8.07%; % Mean RIGHT EAR THICKNESS [IMQ] versus day 1, AVG ([1]; Day 3, 60 mpk BID): 3.35%; Clinical Score Erythema (0-4), AVG Score ([1]; Day 3, 60 mpk BID): 1.15; Clinical Score Scaling (0-4), AVG Score ([1]; Day 3, 60 mpk BID): 0.5; % Mean DORSAL BACK THICKNESS versus day 1, AVG ([1]; Day 3, 60 mpk QD): 41.12%; % Mean LEFT EAR THICKNESS [Control] versus day 1, AVG ([1]; Day 3, 60 mpk QD): −8.74%; % Mean RIGHT EAR THICKNESS [IMQ] versus day 1, AVG ([1]; Day 3, 60 mpk QD): 3.71%; Clinical Score Erythema (0-4), AVG Score ([1]; Day 3, 60 mpk QD): 1.05; Clinical Score Scaling (0-4), AVG Score ([1]; Day 3, 60 mpk QD): 0.5; % Mean DORSAL BACK THICKNESS versus day 1, AVG ([1]; Day 4, 25 mpk BID): 43.62%; % Mean LEFT EAR THICKNESS [Control] versus day 1, AVG ([1]; Day 4, 25 mpk BID): −5.56%; % Mean RIGHT EAR THICKNESS [IMQ] versus day 1, AVG ([1]; Day 4, 25 mpk BID): 12.03%; % Mean DORSAL BACK THICKNESS versus day 1, AVG ([1]; Day 4, 60 mpk BID): 45.39%; % Mean LEFT EAR THICKNESS [Control] versus day 1, AVG ([1]; Day 4, 60 mpk BID): −3.95%; % Mean RIGHT EAR THICKNESS [IMQ] versus day 1, AVG ([1]; Day 4, 60 mpk BID): 11.25%; Clinical Score Erythema (0-4), AVG Score ([1]; Day 4, 60 mpk BID): 1.3; Clinical Score Scaling (0-4), AVG Score ([1]; Day 4, 60 mpk BID): 0.55; % Mean DORSAL BACK THICKNESS versus day 1, AVG ([1]; Day 4, 60 mpk QD): 54.57%; % Mean LEFT EAR THICKNESS [Control] versus day 1, AVG ([1]; Day 4, 60 mpk QD): −7.01%; % Mean RIGHT EAR THICKNESS [IMQ] versus day 1, AVG ([1]; Day 4, 60 mpk QD): 9.53%; Clinical Score Erythema (0-4), AVG Score ([1]; Day 4, 60 mpk QD): 1.3; Clinical Score Scaling (0-4), AVG Score ([1]; Day 4, 60 mpk QD): 0.6; % Mean DORSAL BACK THICKNESS versus day 1, AVG ([1]; Day 6, 25 mpk BID): 84.46* %; % Mean LEFT EAR THICKNESS [Control] versus day 1, AVG ([1]; Day 6, 25 mpk BID): −1.35%; % Mean RIGHT EAR THICKNESS [IMQ] versus day 1, AVG ([1]; Day 6, 25 mpk BID): 37.60* %; % Mean DORSAL BACK THICKNESS versus day 1, AVG ([1]; Day 6, 60 mpk BID): 72.41** %; % Mean LEFT EAR THICKNESS [Control] versus day 1, AVG ([1]; Day 6, 60 mpk BID): 1.37%; % Mean RIGHT EAR THICKNESS [IMQ] versus day 1, AVG ([1]; Day 6, 60 mpk BID): 33.34** %; Clinical Score Erythema (0-4), AVG Score ([1]; Day 6, 60 mpk BID): 1.65; Clinical Score Scaling (0-4), AVG Score ([1]; Day 6, 60 mpk BID): 2.55; % Mean DORSAL BACK THICKNESS versus day 1, AVG ([1]; Day 6, 60 mpk QD): 90.77^NS %; % Mean LEFT EAR THICKNESS [Control] versus day 1, AVG ([1]; Day 6, 60 mpk QD): 8.65%; % Mean RIGHT EAR THICKNESS [IMQ] versus day 1, AVG ([1]; Day 6, 60 mpk QD): 38.11* %; Clinical Score Erythema (0-4), AVG Score ([1]; Day 6, 60 mpk QD): 2.25; Clinical Score Scaling (0-4), AVG Score ([1]; Day 6, 60 mpk QD): 3.05; % Mean DORSAL BACK THICKNESS versus day 1, AVG ([1]; Day 8, 25 mpk BID): 46.07^NS %; % Mean LEFT EAR THICKNESS [Control] versus day 1, AVG ([1]; Day 8, 25 mpk BID): −3.26%; % Mean RIGHT EAR THICKNESS [IMQ] versus day 1, AVG ([1]; Day 8, 25 mpk BID): 43.36** %; % Mean DORSAL BACK THICKNESS versus day 1, AVG ([1]; Day 8, 60 mpk BID): 41.36^NS %; % Mean LEFT EAR THICKNESS [Control] versus day 1, AVG ([1]; Day 8, 60 mpk BID): −1.92%; % Mean RIGHT EAR THICKNESS [IMQ] versus day 1, AVG ([1]; Day 8, 60 mpk BID): 40.66** %; Clinical Score Erythema (0-4), AVG Score ([1]; Day 8, 60 mpk BID): 1.3; Clinical Score Scaling (0-4), AVG Score ([1]; Day 8, 60 mpk BID): 1.45; % Mean DORSAL BACK THICKNESS versus day 1, AVG ([1]; Day 8, 60 mpk QD): 45.99^NS %; % Mean LEFT EAR THICKNESS [Control] versus day 1, AVG ([1]; Day 8, 60 mpk QD): 0.14%; % Mean RIGHT EAR THICKNESS [IMQ] versus day 1, AVG ([1]; Day 8, 60 mpk QD): 48.04** %; Clinical Score Erythema (0-4), AVG Score ([1]; Day 8, 60 mpk QD): 1.1; Clinical Score Scaling (0-4), AVG Score ([1]; Day 8, 60 mpk QD): 1.7; Kd (BRD7): > 20 µM

Question: For `CCOc1cc(C(=O)N[C@H]2CC[C@H](O)CC2)ccc1Nc1cc2c(cn1)N(C)C(=O)c1ccccc1N2C` [Compound T62], which Kd (BRD7) is on record?
Answer: Its Kd is > 20 µM.
